Assay results reported in patent US20220105051A1, “COMPOUNDS FOR INCREASING MHC-I EXPRESSION AND MODULATING HISTONE DEACETYLASE ACTIVITY” (Cava Healthcare Inc., priority 2019, published 2022).

Key:
[1] = test system: TAP, MHC class I, and HDACs 8 and 10; assay: mRNA expression in A9 cells (RT-PCR); format: cell-based, murine; settings: 0.064 μmol
Source text: (§1) Methods primarily used: Fluorescence Activated Cell Sorting (FACS), western blot, RealTime-PCR (RT-PCR), Proteome Profiler Mouse Cytokine Array Kit (Panel A).

[2] = test system: A9 cells; assay: Proteome Profiler Mouse XL cytokine array on A9 cells; format: cell-based, murine; settings: 0.014 mg/ml (0.064 umol) vs DMSO
Description: as §1
Upon addition of 0.014 mg/ml (0.064 umol) of Curcuphenol, there was a change in the cytokine production of A9 cells, relative to that of cells treated with only vehicle DMSO. This treatment was done in 2 mL of DMEM media, at an initial seeding density of 1×10^6 A9 cells, and treatment with Curcuphenol in DMSO vehicle or DMSO vehicle was done 24 hours after seeding A9 cells. A9 cells are murine metastatic epithelial carcinoma cells. Cytokine change was seen using the Proteome Profiler Mouse XL cytokine array (R&D Systems, ARY028).

CC(C)=CCC[C@H](C)c1ccc(C)cc1O [Curcuphenol, curcuphenol]
Decrease: Adiponectin/Acrp30 production [2] | Amphiregulin production [2] | Angiopoietin-1 production [2] | CCL2/JE/MCP-1 production [2] | CCL5/RANTES production [2] | CCL6/C10 production [2] | CCL11/Eotaxin production [2] | CCL17/TARC production [2] | CCL22/MDC production [2] | CD160 production [2] | CXCL9/MIG production [2] | CXCL10/IP-10 production [2] | CXCL11/I-TAC production [2] | Chemerin production [2] | E-Selectin/CD62-E production [2] | Endostatin production [2] | Flt-3 Ligand production [2] | IGFBP-2 production [2] | IGFBP-3 production [2] | IGFBP-6 production [2] | IL-6 production [2] | IL-7 production [2] | IL-10 production [2] | IL-11 production [2] | IL-12 p40 production [2] | M-CSF production [2] | MMP-2 production [2] | MMP-3 production [2] | P-Selectin/CD62P production [2] | Pentraxin 2/SAP production [2] | Pref-1/DLK-1/FA1 production [2] | TNF-alpha production [2] | WISP-1/CCN4 production [2]
No change: Leptin production [2] | Periostin/OSF-2 production [2] | Proprotein Convertase 9/PCSK9 production [2] | VCAM-1/CD106 production [2]
Increase: Angiopoietin-2 production [2] | Angiopoietin-like 3 production [2] | CCL12/MCP-5 production [2] | CCL19/MIP-3beta production [2] | CD40/TNFRSF5 production [2] | CX3CL1/Fractalkine production [2] | CXCL13/BLC/BCA-1 production [2] | CXCL16 production [2] | Coagulation Factor III/Tissue Factor production [2] | Cystatin C production [2] | DGF-BB production [2] | FGF-21 production [2] | G-CSF production [2] | GDF-15 production [2] | Gas 6 production [2] | IFN-gamma production [2] | IL-1alpha/IL-1F1 production [2] | IL-1beta/IL-1F2 production [2] | IL-1ra/IL-1F3 production [2] | IL-13 production [2] | IL-15 production [2] | IL-28A/B production [2] | IL-33 production [2] | LIX production [2] | Myeloperoxidase production [2] | Osteopontin (OPN) production [2] | Pentraxin 3/TSG-14 production [2] | Proliferin production [2] | Serpin E1/PAI-1 production [2] | Serpin F1/PEDF production [2] | TIM-1/KIM-1/HAVCR production [2] | VEGF production [2]
increased mRNA expression: mRNA expression of HDAC 8 [1] | mRNA expression of HDAC 10 [1] | mRNA expression of MHC class I [1] | mRNA expression of TAP [1]
